pEC50: −log10 of the molar value.

The target in the assay is T1, Dros GluCl (Drosophila melanogaster, UniProt Q94900, I27V/K241R).
T1 construct: Clone pDros GluCl was linearized by digestion with the restriction endonuclease SalI; expressed in transfected cells; host or cells: Xenopus laevis oocytes injected with in vitro transcribed Dros GluCl RNA
As to the kind of experiment: cell-based. The conditions noted are these: for Reversibility of activated current (in words): after washing drug from the bath, IVMPO4 observed for up to 10 minutes; for Sensitivity of oocytes injected with Dros GluCl RNA (in words): tested at concentrations of 1 mM or higher. How it is done: Clone pDros GluCl was linearized by digestion with the restriction endonuclease SalI. In vitro RNA was synthesized from 0.5 μg of this plasmid in a reaction containing 40 mM Tris-HCl, pH 7.5; 6 mM MgCl2; 2 mM Spermidine; 10 mM NaCl; 10 mM DTT; 0.05 mg/ml Bovine Serum Albumin; 2 units/ul RNasin; 800 μM each ATP, CTP, and UTP; 200 μMGTP; 800 μM m7G(5')ppp(5')G; 5 μCi ^32 P-CTp; and 50 units T3 RNA polymerase in a final volume of 50 μl. The reaction was incubated for 3 hours at 37° C. followed by an additional 15 minutes incubation with 20 units RNase free DNase and extraction with phenol, phenol:chloroform, and chloroform. The RNA was precipitated with 1/10 volume 3M sodium acetate and 2.5 volumes 100% ethanol, stored at -20° C. for 16 hours, washed with 70% ethanol and resuspended in water at a concentration of 1 mg/ml for injection into Xenopus laevis oocytes.
Xenopus laevis oocytes were prepared and injected using standard methods previously described and known in the art [Arena, J. P., Liu, K. K., Paress, P. S. & Cully, D. F. Mol. Pharmacol. 40, 368-374 (1991); Arena, J. P., Liu, K. K., Paress, P. S., Schaeffer, J. M. & Cully, D. F. Mol. Brain Res. 15, 339-348 (1992)]. Adult female Xenopus laevis were anesthetized with 0.17% tricaine methanesulfonate and the ovaries were surgically removed and placed in a dish consisting of (mM): NaCl 82.5, KCl 2, MgCl2 1, CaCl2 1.8, HEPES 5 adjusted to pH 7.5 with NaOH (OR-2). Ovarian lobes were broken open, rinsed several times, and gently shaken in OR-2 containing 0.2% collagenase (Sigma, Type 1A) for 2-5 hours. When approximately 50% of the follicular layers were removed, Stage V and VI oocytes were selected and placed in media consisting of (mM): NaCl 86, KCl 2, MgCl2 1, CaCl2 1.8, HEPES 5, Na pyruvate 2.5, theophylline 0.5, gentamicin 0.1 adjusted to pH 7.5 with NaOH (ND-96) for 24-48 hours before injection. Oocytes were injected with 50 nl of Dros GluCl RNA (0.01-1 mg/ml). Control oocytes were injected with 50 nl of water. Oocytes were incubated for 2-10 days in ND-96 before recording. Incubations and collagenase digestion were carried out at 18° C.
Recordings were made at room temperature in standard frog saline consisting of (mM): NaCl 115, KCl 2, MgCl2 1, CaCl2 1.8, HEPES 10, adjusted to pH 7.5 with NaOH. Oocytes were voltage-clamped using a standard two microelectrode amplifier (Dagan 8500 or TEV-200, Minneapolis, Minn.). Pipettes were filled with 3M KCl and had resistances between 0.5-3.0 megaohms. A plexiglass recording chamber (volume 200 μl) was constantly perfused at a rate of 10 ml/min. The recording chamber was connected to ground with a Ag/AgCl electrode. Data were acquired and analyzed using PCLAMP with a TL-1 interface (Axon Instruments, Foster City, Calif.). Membrane current at a holding potential of -80 mV was recorded. The amplitude of drug-sensitive current was determined by subtracting the holding current at -80 mV from the peak current obtained in the presence of drug. Data were filtered at 30 Hz and sampled at 16.6 Hz. Current/voltage relationships (I/V) and reversal potentials (Erev) were determined using a 1-3 sec voltage ramp over the voltage range of -110 to +80 mV. For the ramps, data were filtered at 0.3-3 kHz and sampled at 160 Hz. Current in drug free solution was subtracted from current in the presence of drug to obtain drug-sensitive current/voltage relationships.

T1 sequence (Q94900 23-456 I27V/K241R/S345N): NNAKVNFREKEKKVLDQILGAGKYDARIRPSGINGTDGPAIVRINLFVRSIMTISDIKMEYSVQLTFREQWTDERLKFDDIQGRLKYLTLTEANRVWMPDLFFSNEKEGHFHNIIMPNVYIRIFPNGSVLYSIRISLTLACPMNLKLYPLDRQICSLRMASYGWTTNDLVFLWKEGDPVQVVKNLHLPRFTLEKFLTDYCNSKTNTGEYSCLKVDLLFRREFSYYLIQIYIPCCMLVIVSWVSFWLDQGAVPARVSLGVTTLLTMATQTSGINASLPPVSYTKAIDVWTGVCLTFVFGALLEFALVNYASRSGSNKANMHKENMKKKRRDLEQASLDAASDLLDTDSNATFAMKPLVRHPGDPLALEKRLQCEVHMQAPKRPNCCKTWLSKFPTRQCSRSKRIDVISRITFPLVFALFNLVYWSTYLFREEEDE

As to `C=C(C)C1C(=O)c2c3c(cc4c5c(n1c24)C1(C)C(CCC2C(C)(/C=C/C=C(\C)C(=O)O)C(O)CCC21C)C5)C1=CC(C)(C)OC(C)(C)C1C3O` (centres unmarked) [Compound-1], the “Reversibility of activated current (in words)” value is reported as “slowly reversible”. Further, for the setting “after Compound-1, oocytes expressing Dros GluCl”, the “Time for current to fully return to baseline” value is “up to 10 minutes”. For the same compound, the “Activation of membrane current (in words)” value (shortened to “Activation … (in words)”) (oocytes expressing Dros GluCl) was “directly activated membrane current”. Consider `NCCCC(=O)O` [GABA], for which the “Sensitivity of oocytes injected with Dros GluCl RNA (in words)” value (“Sensitivity of oocytes injected” for short) is on record as “insensitive”.

Take `CC[C@H](C)[C@H]1O[C@]2(CC[C@@H]1C)C[C@@H]1C[C@@H](C/C=C(\C)[C@H](O[C@H]3C[C@H](OC)[C@@H](O[C@H]4C[C@H](OC)[C@@H](OP(=O)(O)O)[C@H](C)O4)[C@H](C)O3)[C@@H](C)/C=C/C=C3\CO[C@@H]4[C@H](O)C(C)=C[C@@H](C(=O)O1)[C@]34O)O2` [IVMPO4]: the “Reversibility of activated current (in words)” value is recorded as “irreversible”. Also, the “Current activated, % of maximal current” value (10 nM IVMPO4, oocytes expressing Dros GluCl) is recorded as 20-40%. Besides, for the setting “oocytes expressing Dros GluCl”, the “Activation … (in words)” value is on record as “directly activated current” and the “Concentration giving maximal activation of current” value is 1 µM. For `CN[C@H](CC(=O)O)C(=O)O` [N-methyl-D-aspartic acid], the “Sensitivity of oocytes injected” value was “insensitive”. As to `N[C@@H](CC(=O)O)C(=O)O` [aspartate], the Emax at 1000 µM (read-out: % of maximal activation) was found to be 8%.

A word on the pEC50: it is −log10 of the EC50, conventionally taken in molar units. For the compound `N[C@@H](CCC(=O)O)C(=O)O` [glutamate], the pEC50 was 4.52. As for `NCC(=O)O` [glycine], the “Sensitivity of oocytes injected” value was “insensitive”. Consider `NCCc1c[nH]cn1` [histamine], for which the “Sensitivity of oocytes injected” value was “insensitive”. Consider `NC(C(=O)O)c1cc(O)no1` (centres unmarked) [ibotenate], for which, where the note is “oocytes expressing Dros GluCl”, the “Activation … (in words)” value is on record as “reversibly activated” and the “Concentration giving maximal activation of current” value was 100 µM. Take `C=C(C)[C@H]1CN[C@H](C(=O)O)[C@H]1CC(=O)O` [kainate]: the “Sensitivity of oocytes injected” value is “insensitive”. Consider picrotoxin, for which the “Block of the current elicited with IVMPO4” value (500 μM picrotoxin, oocytes expressing Dros GluCl) came to 13%.

These data come from patent US5693492A, “DNA encoding glutamate gated chloride channels” (priority 1995, dated 1997).
